Measured values as given in patent US20250034147A1, “MDM2 DEGRADERS AND USES THEREOF” (Kymera Therapeutics, Inc., priority 2021, published 2025).

Target: T1, HiBiT-tagged MDM2 (Homo sapiens, UniProt Q00987)
T1 construct: expressed in transfected cells
Assay: MDM2 HiBit HEK293T degradation
Type: cell-based
Conditions: HEK293T cells stably expressing C-terminally HiBiT-tagged MDM2; 4 h; read-out: MDM2 HiBit HEK293T degradation 4 h: Average external-Abs DC50
Procedure: HEK293T cells were grown overnight to 70-80% confluency in a 6-well plate in complete media (DMEM 10% FBS) in a 37° C. incubator with 5% CO2. Cells were transfected with 1 micrograms of C- or N-terminally HiBiT-tagged MDM2 constructs using Fugene 6 transfection reagent (Promega) as per manufacturer protocol. After overnight incubation at 37° C., growth media within the wells was replaced with selection media (DMEM+10% FBS+1 microgram/ml final concentration of Puromycin). Puromycin (selection antibiotic) concentrations required for complete cell kill were determined previously. Cells were monitored for the next 48h-96h to select for positively transfected cells. Surviving colonies were pooled and expanded in selection media. Expanded pools of HEK293T cells stably expressing C- and N-terminally HiBiT-tagged MDM2, were characterized using a MDM2 tool degrader and HaloPROTAC3 as positive control. HEK293T cells expressing C-terminally HiBiT-tagged MDM2 were subsequently used for assessment of degradation potencies for MDM2 degraders.
The letter codes for MDM2 degradation potency (DC50) include: A (<10 nM), B […], C (>100-1000 nM), and D (>1000 nM).

T1 sequence (Q00987 whole entry): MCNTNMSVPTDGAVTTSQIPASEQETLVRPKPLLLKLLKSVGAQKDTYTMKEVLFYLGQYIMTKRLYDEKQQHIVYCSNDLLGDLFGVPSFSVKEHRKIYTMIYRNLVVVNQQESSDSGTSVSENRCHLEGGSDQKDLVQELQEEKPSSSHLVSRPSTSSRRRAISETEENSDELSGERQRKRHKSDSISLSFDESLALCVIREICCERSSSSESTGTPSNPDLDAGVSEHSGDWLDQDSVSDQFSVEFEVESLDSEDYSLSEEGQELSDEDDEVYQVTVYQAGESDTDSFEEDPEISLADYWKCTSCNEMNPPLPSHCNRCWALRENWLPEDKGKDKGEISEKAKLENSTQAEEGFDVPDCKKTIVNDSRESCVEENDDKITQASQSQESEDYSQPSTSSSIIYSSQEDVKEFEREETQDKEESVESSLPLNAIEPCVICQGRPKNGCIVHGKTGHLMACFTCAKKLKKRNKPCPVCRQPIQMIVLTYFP

| SMILES | DC50 [nM] |
| --- | --- |
| Cn1c(=O)n(C2CCC(=O)NC2=O)c2ccc(C3CCN(Cc4ccc(NC(=O)[C@@H]5NC6(CCCCC6)[C@@]6(C(=O)Nc7cc(Cl)ccc76)[C@H]5c5cccc(Cl)c5F)cc4C(=O)O)CC3)cc21 (stereo partly drawn) [I-171] | 10 to 100 |
| O=C1CCN(c2ccc(CCCCN3CCN(C(=O)[C@H]4CC[C@H](NC(=O)[C@@H]5NC6(CCCCC6)[C@@]6(C(=O)Nc7cc(Cl)ccc76)[C@H]5c5cccc(Cl)c5F)CC4)CC3)cc2)C(=O)N1 [I-156] | > 1000 |
| Cn1c(=O)n(C2CCC(=O)NC2=O)c2ccc(N3CCN(C(=O)[C@H]4CC[C@H](NC(=O)[C@@H]5NC6(CCCCC6)[C@@]6(C(=O)Nc7cc(Cl)ccc76)[C@H]5c5cccc(Cl)c5F)CC4)C(C(=O)O)C3)cc21 (stereo partly drawn) [I-142] | 10 to 100 |
| Cn1c(=O)n(C2CCC(=O)NC2=O)c2ccc(CCCN3CCN(C[C@H]4CC[C@H](NC(=O)[C@@H]5NC6(CCCCC6)[C@@]6(C(=O)Nc7cc(Cl)ccc76)[C@H]5c5cccc(Cl)c5F)CC4)C(P(=O)(O)O)C3)cc21 (stereo partly drawn) [I-235] | 10 to 100 |
| Cc1ncsc1-c1ccc(CNC(=O)[C@@H]2C[C@@H](O)CN2C(=O)[C@@H](NC(=O)C2(F)CC2)C(C)(C)C)c(OCCCCCCCCNC(=O)[C@H]2CC[C@H](NC(=O)[C@@H]3NC4(CCCCC4)[C@@]4(C(=O)Nc5cc(Cl)ccc54)[C@H]3c3cccc(Cl)c3F)CC2)c1 [I-149] | > 1000 |
| Cn1c(=O)n(C2CCC(=O)NC2=O)c2ccc(CN3CCN(CCCN4CCC(NC(=O)[C@@H]5NC6(CCCCC6)[C@@]6(C(=O)Nc7cc(Cl)ccc76)[C@H]5c5cccc(Cl)c5F)CC4)CC3)cc21 (stereo partly drawn) [I-147] | 10 to 100 |
| Cn1c(=O)n(C2CCC(=O)NC2=O)c2ccc(CCCO[C@@H]3C[C@H](C(=O)O)N(C[C@H]4CC[C@H](NC(=O)[C@@H]5NC6(CCCCC6)[C@@]6(C(=O)Nc7cc(Cl)ccc76)[C@H]5c5cccc(Cl)c5F)CC4)C3)cc21 (stereo partly drawn) [I-199] | 10 to 100 |
| Cc1ncsc1-c1ccc(CNC(=O)[C@@H]2C[C@@H](O)CN2C(=O)[C@@H](NC(=O)CCCCC2CCN(C(=O)[C@H]3CC[C@H](NC(=O)[C@@H]4NC5(CCCCC5)[C@@]5(C(=O)Nc6cc(Cl)ccc65)[C@H]4c4cccc(Cl)c4F)CC3)CC2)C(C)(C)C)cc1 [I-148] | > 1000 |
| Cn1c(=O)n(C2CCC(=O)NC2=O)c2ccc(CN3CCN(C[C@H]4CC[C@H](NC(=O)[C@@H]5NC6(CCCCC6)[C@@]6(C(=O)Nc7cc(Cl)ccc76)[C@H]5c5cccc(Cl)c5F)CC4)C(C(=O)O)C3)cc21 (stereo partly drawn) [I-196] | 10 to 100 |
| Cn1c(=O)n(C2CCC(=O)NC2=O)c2ccc(O[C@@H]3C[C@@H](C(=O)O)N(C[C@H]4CC[C@H](NC(=O)[C@@H]5NC6(CCCCC6)[C@@]6(C(=O)Nc7cc(Cl)ccc76)[C@H]5c5cccc(Cl)c5F)CC4)C3)cc21 (stereo partly drawn) [I-200] | 10 to 100 |
| Cn1c(=O)n(C2CCC(=O)NC2=O)c2ccc(CCCO[C@@H]3C[C@@H](C(=O)O)N(C(=O)[C@H]4CC[C@H](NC(=O)[C@@H]5NC6(CCCCC6)[C@@]6(C(=O)Nc7cc(Cl)ccc76)[C@H]5c5cccc(Cl)c5F)CC4)C3)cc21 (stereo partly drawn) [I-136] | 10 to 100 |
| O=C(O)Cn1c(=O)n(C2CCC(=O)NC2=O)c2ccc(C3CCN(C[C@H]4CC[C@H](NC(=O)[C@@H]5NC6(CCCCC6)[C@@]6(C(=O)Nc7cc(Cl)ccc76)[C@H]5c5cccc(Cl)c5F)CC4)CC3)cc21 (stereo partly drawn) [I-206] | 10 to 100 |
| Cn1c(=O)n(C2CCC(=O)NC2=O)c2ccc(CN3CCN(C(=O)[C@H]4CC[C@H](NC(=O)[C@@H]5NC6(CCCCC6)[C@@]6(C(=O)Nc7cc(Cl)ccc76)[C@H]5c5cccc(Cl)c5F)CC4)C(C(=O)O)C3)cc21 (stereo partly drawn) [I-135] | 100 to 1000 |
| Cn1c(=O)n(C2CCC(=O)NC2=O)c2ccc(CN3CCN(CCN4CCC(NC(=O)[C@@H]5NC6(CCCCC6)[C@@]6(C(=O)Nc7cc(Cl)ccc76)[C@H]5c5cccc(Cl)c5F)CC4)CC3)cc21 (stereo partly drawn) [I-167] | 10 to 100 |
| Cc1ncsc1-c1ccc(CNC(=O)[C@@H]2C[C@@H](O)CN2C(=O)[C@@H](NC(=O)C2(F)CC2)C(C)(C)C)c(OCCCC2CCN(C[C@H]3CC[C@H](NC(=O)[C@@H]4NC5(CCCCC5)[C@@]5(C(=O)Nc6cc(Cl)ccc65)[C@H]4c4cccc(Cl)c4F)CC3)CC2)c1 [I-204] | > 1000 |
| Cn1c(=O)n(C2CCC(=O)NC2=O)c2ccc(O[C@@H]3C[C@@H](C(=O)O)N(C(=O)[C@H]4CC[C@H](NC(=O)[C@@H]5NC6(CCCCC6)[C@@]6(C(=O)Nc7cc(Cl)ccc76)[C@H]5c5cccc(Cl)c5F)CC4)C3)cc21 (stereo partly drawn) [I-143] | 10 to 100 |
| C[C@H]1CN(C(=O)[C@H]2CC[C@H](NC(=O)[C@@H]3NC4(CCCCC4)[C@@]4(C(=O)Nc5cc(Cl)ccc54)[C@H]3c3cccc(Cl)c3F)CC2)CCN1CCc1ccc2c(c1)n(C)c(=O)n2C1CCC(=O)NC1=O (stereo partly drawn) [I-121] | < 10 |
| Cn1c(=O)n(C2CCC(=O)NC2=O)c2ccc(C3CC4(C3)CN(C[C@H]3CC[C@H](NC(=O)[C@@H]5NC6(CCCCC6)[C@@]6(C(=O)Nc7cc(Cl)ccc76)[C@H]5c5cccc(Cl)c5F)CC3)C4)cc21 (stereo partly drawn) [I-123] | < 10 |
| Cn1c(=O)n(C2CCC(=O)NC2=O)c2ccc(CCCCCN3CCN(C[C@H]4CC[C@H](NC(=O)[C@@H]5NC6(CCCCC6)[C@@]6(C(=O)Nc7cc(Cl)ccc76)[C@H]5c5cccc(Cl)c5F)CC4)[C@H](C(=O)O)C3)cc21 (stereo partly drawn) [I-211] | < 10 |
| Cn1c(=O)n(C2CCC(=O)NC2=O)c2ccc(CCCO[C@@H]3C[C@@H](C(=O)O)N(C[C@H]4CC[C@H](NC(=O)[C@@H]5NC6(CCCCC6)[C@@]6(C(=O)Nc7cc(Cl)ccc76)[C@H]5c5cccc(Cl)c5F)CC4)C3)cc21 (stereo partly drawn) [I-198] | 100 to 1000 |
| Cn1c(=O)n(C2CCC(=O)NC2=O)c2ccc(C3CCN([C@H]4CC[C@H](N5CCC(NC(=O)[C@@H]6NC7(CCCCC7)[C@@]7(C(=O)Nc8cc(Cl)ccc87)[C@H]6c6cccc(Cl)c6F)CC5)CC4)CC3)cc21 (stereo partly drawn) [I-155] | < 10 |
| Cn1c(=O)n(C2CCC(=O)NC2=O)c2ccc(CCCN3CCN(C[C@H]4CC[C@H](NC(=O)[C@@H]5NC6(CCCCC6)[C@@]6(C(=O)Nc7cc(Cl)ccc76)[C@H]5c5cccc(Cl)c5F)CC4)[C@@H](C(=O)O)C3)cc21 (stereo partly drawn) [I-216] | < 10 |

Continued, values first:

| DC50 [nM] | SMILES |
| --- | --- |
| < 10 | C[C@@H]1CN(C(=O)[C@H]2CC[C@H](NC(=O)[C@@H]3NC4(CCCCC4)[C@@]4(C(=O)Nc5cc(Cl)ccc54)[C@H]3c3cccc(Cl)c3F)CC2)CCN1CCc1ccc2c(c1)n(C)c(=O)n2C1CCC(=O)NC1=O (stereo partly drawn) [I-122] |
| < 10 | Cn1c(=O)n(C2CCC(=O)NC2=O)c2ccc(C3CCN(CCN4CCN(C[C@H]5CC[C@H](NC(=O)[C@@H]6NC7(CCCCC7)[C@@]7(C(=O)Nc8cc(Cl)ccc87)[C@H]6c6cccc(Cl)c6F)CC5)[C@H](C(=O)O)C4)CC3)cc21 (stereo partly drawn) [I-227] |
| < 10 | Cn1c(=O)n(C2CCC(=O)NC2=O)c2ccc(N3CCN(C(=O)CN4CCC(NC(=O)[C@@H]5NC6(CCCCC6)[C@@]6(C(=O)Nc7cc(Cl)ccc76)[C@H]5c5cccc(Cl)c5F)CC4)CC3)cc21 (stereo partly drawn) [I-125] |
| < 10 | Cn1c(=O)n(C2CCC(=O)NC2=O)c2ccc(C3(O)CCN(C[C@H]4CC[C@H](NC(=O)[C@@H]5NC6(CCCCC6)[C@@]6(C(=O)Nc7cc(Cl)ccc76)[C@H]5c5cccc(Cl)c5F)CC4)CC3)cc21 (stereo partly drawn) [I-194] |
| < 10 | Cn1c(=O)n(C2CCC(=O)NC2=O)c2cccc(C3CCN(CCN4CCC(NC(=O)[C@@H]5NC6(CCCCC6)[C@@]6(C(=O)Nc7cc(Cl)ccc76)[C@H]5c5cccc(Cl)c5F)CC4)CC3)c21 (stereo partly drawn) [I-152] |
| < 10 | Cn1c(=O)n(C2CCC(=O)NC2=O)c2ccc(N3CCC(CC4(C(=O)O)CCN(C[C@H]5CC[C@H](NC(=O)[C@@H]6NC7(CCCCC7)[C@@]7(C(=O)Nc8cc(Cl)ccc87)[C@H]6c6cccc(Cl)c6F)CC5)CC4)CC3)cc21 (stereo partly drawn) [I-203] |
| < 10 | Cn1c(=O)n(C2CCC(=O)NC2=O)c2ccc(CCC(=O)N3CCN(C[C@H]4CC[C@H](NC(=O)[C@@H]5NC6(CCCCC6)[C@@]6(C(=O)Nc7cc(Cl)ccc76)[C@H]5c5cccc(Cl)c5F)CC4)CC3)cc21 (stereo partly drawn) [I-134] |
| < 10 | Cn1c(=O)n(C2CCC(=O)NC2=O)c2ccc(CCN3CCN(CCN4CCC(NC(=O)[C@@H]5NC6(CCCCC6)[C@@]6(C(=O)Nc7cc(Cl)ccc76)[C@H]5c5cccc(Cl)c5F)CC4)CC3)cc21 (stereo partly drawn) [I-151] |
| < 10 | Cn1c(=O)n(C2CCC(=O)NC2=O)c2ccc(CCCCCN3CCN(C[C@H]4CC[C@H](NC(=O)[C@@H]5NC6(CCCCC6)[C@@]6(C(=O)Nc7cc(Cl)ccc76)[C@H]5c5cccc(Cl)c5F)CC4)[C@@H](C(=O)O)C3)cc21 (stereo partly drawn) [I-212] |
| < 10 | Cn1c(=O)n(C2CCC(=O)NC2=O)c2ccc(CCCCN3CCN(C[C@H]4CC[C@H](NC(=O)[C@@H]5NC6(CCCCC6)[C@@]6(C(=O)Nc7cc(Cl)ccc76)[C@H]5c5cccc(Cl)c5F)CC4)[C@@H](C(=O)O)C3)cc21 (stereo partly drawn) [I-214] |
| < 10 | Cn1c(=O)n(C2CCC(=O)NC2=O)c2ccc(CCCN3CCN(C[C@H]4CC[C@H](NC(=O)[C@@H]5NC6(CCC(C)(C)CC6)[C@@]6(C(=O)Nc7cc(Cl)ccc76)[C@H]5c5ccnc(Cl)c5F)CC4)[C@@H](C(=O)O)C3)cc21 (stereo partly drawn) [I-223] |
| < 10 | Cn1c(=O)n(C2CCC(=O)NC2=O)c2ccc(-c3ccc(CCN4CCC(NC(=O)[C@@H]5NC6(CCCCC6)[C@@]6(C(=O)Nc7cc(Cl)ccc76)[C@H]5c5cccc(Cl)c5F)CC4)cc3)cc21 (stereo partly drawn) [I-154] |
| < 10 | Cn1c(=O)n(C2CCC(=O)NC2=O)c2ccc(CCCCN3CCN(C[C@H]4CC[C@H](NC(=O)[C@@H]5NC6(CCCCC6)[C@@]6(C(=O)Nc7cc(Cl)ccc76)[C@H]5c5cccc(Cl)c5F)CC4)[C@H](C(=O)O)C3)cc21 (stereo partly drawn) [I-213] |
| < 10 | Cn1c(=O)n(C2CCC(=O)NC2=O)c2ccc(CCCN3CCN(C(=O)[C@@H]4CC[C@@H](NC(=O)[C@@H]5NC6(CCCCC6)[C@@]6(C(=O)Nc7cc(Cl)ccc76)[C@H]5c5cccc(Cl)c5F)CO4)CC3)cc21 (stereo partly drawn) [I-133] |
